Results on 20 molecules are retold here after patent US8680111B2 (Pfizer Inc., priority 2012, dated 2014).

Where two headings read alike, the source gives them in different places. Bounds are passed on as bounds.

For data set [1], the target named is T1, human recombinant wild-type ALK kinase domain (amino acids 1093-1411) (Homo sapiens, UniProt Q9UM73).
T1 construct: ALK kinase domain (amino acids 1093-1411); made in house
Description: Wild-type ALK enzyme assay (microfluidic mobility shift). Type of data set: biochemical. Particulars: ATP 60 μM, competitive inhibition fit, read-out: WT ALK enzyme assay (Ki).
Description: The reactions were incubated for 1 h at room temperature, stopped by the addition of 0.1 M EDTA, pH 8, and the extent of reactions (˜15-20% conversion with no inhibitor) was determined after electrophoretic separation of the fluorescently labeled peptide substrate and phosphorylated product on an LabChip EZ Reader II (Caliper Life Sciences, Hopkinton, Mass.).

Data set [2] addresses T2, human recombinant L1196M ALK kinase domain (amino acids 1093-1411) (Homo sapiens, UniProt Q9UM73, L1196M).
T2 construct: ALK kinase domain (amino acids 1093-1411); made in house
Description: L1196M mutant ALK enzyme assay (microfluidic mobility shift). Type of data set: biochemical. Particulars: ATP 60 μM, 0.5 nM enzyme, competitive inhibition fit; read-out: L1196M ALK enzyme assay (Ki).

In data set [3] the target is T3, WT EML4-ALK (NIH-3T3 EML4-ALK wt v1 cells) (Homo sapiens, UniProt Q9UM73).
T3 construct: expressed in transfected cells; the other entry of the earlier key: EML4 (Q9HC35, Echinoderm microtubule-associated protein-like 4)
Kind of data set: Cellular phospho-ALK (Tyr1604) ELISA assay for WT EML4-ALK. Particulars: 1 hour, read-out: ELISA assay for WT EML4-ALK (IC50). Type of data set: cell-based.

For data set [4], the target named is T4, L1196M EML4-ALK (NIH-3T3 EML4-ALK v1 L1196M cells) (Homo sapiens, UniProt Q9UM73, L1196M).
T4 construct: expressed in transfected cells; the other entry of the earlier key: EML4 (Q9HC35, Echinoderm microtubule-associated protein-like 4)
Kind of data set: Cellular phospho-ALK (Tyr1604) ELISA assay for L1196M EML4-ALK. Type of data set: cell-based. Particulars: NIH-3T3 EML4-ALK v1 L1196M cells, 1 hour, phospho-ALK (Tyr1604); read-out: ELISA assay for L1196M EML4-ALK (IC50).

For the setting “amide bond, 12-membered ring, HATU/DIEA, DMF, 12.6 mM”, `C[C@H]1Oc2nc(cnc2N)-c2c(C#N)n[nH]c2CN(C)C(=O)c2ccc(F)cc21` [Example 89, (10R)-7-amino-12-fluoro-10,16-di methyl-15-oxo-10,15,16,17-tetrahydro-1H-8,4-(azeno)pyrazolo[4,3-h][2,5,11]benzoxadiazacyclotetradecine-3-carbonitrile] displayed a ring closure, isolated yield of 15.8%. Moreover, the inhibition constant Ki in data set [1] was determined as 0.339 nM; in data set [2] it was 0.275 nM. Also, the values for the IC50 in data set [3] and in data set [4] were 6.43 nM and 56 nM, respectively.
The molecule `C[C@H]1Oc2nc(cnc2N)-c2c(C#N)nn(CC(F)F)c2CN(C)C(=O)c2ccc(F)cc21` [Example 90, (10R)-7-amino-1-(2,2-difluoroethyl)-12-fluoro-10,16-dimethyl-15-oxo-10,15,16,17-tetrahydro-1H-8,4-(azeno)pyrazolo[4,3-h][2,5,11]benzoxadiazacyclotetradecine-3-carbonitrile] displayed a ring closure, isolated yield (cc_pd bond, 12-membered ring, Pd(OAc)2/cataCXium A/KOAc, t-amyl alcohol, 46.7 mM) of 11%. For the same molecule, the inhibitory constant (Ki) in data set [1] came out at 0.079 nM; in data set [2], 0.249 nM. In addition, the IC50 was 1.32 nM in data set [3] and 13 nM in data set [4].
Take `Cn1ncc2c1-c1cnc(N)c(c1)OCc1cc(F)ccc1OCCC2`: under “ether bond, 13-membered ring, NaH, DMF, 51.0 mM, 50.0 °C, 2 steps”, the ring closure, isolated yield was found to be 37%.
Take `C[C@H]1Oc2cc(nnc2N)-c2c(nn(C)c2C#N)CN(C)C(=O)c2ccc(F)cc21` [Example 60, (10R)-7-amino-12-fluoro-2,10,16-trimethyl-15-oxo-10,15,16,17-tetrahydro-2H-8,4-(metheno)pyrazolo[4,3-h][2,5,6,11]benzoxatriazacyclotetradecine-3-carbonitrile]: the ring closure, isolated yield (amide bond, 12-membered ring, HATU/DIEA, DMF/THF, 18.6 mM, 0.0 °C) came out at 9%. The results for the Ki in data set [1] and in data set [2] were 4.6 nM and 21.5 nM, respectively.
As to `C[C@@H]1Oc2nc(cnc2N)-c2cn(C)nc2CN(C)C(=O)c2ccc(F)cc21` [Example 83, (10S)-7-amino-12-fluoro-2,10,16-trimethyl-16,17-dihydro-2H-8,4-(azeno)pyrazolo[4,3-h][2,5,11]benzoxadiazacyclotetradecin-15(10H)-one], for the setting “cc_pd bond, 12-membered ring, Pd(OAc)2/cataCXium A/KOAc, t-amyl alcohol, 120.0 °C, 2 steps”, the ring closure, isolated yield turned out to be 11%. For the same molecule, the Ki was 47.6 nM in data set [1] and 74 nM in data set [2].
In turn, `C[C@H]1Oc2nc(cnc2N)-c2c(C#N)cccc2CN(C)C(=O)c2ccc(F)cc21` [Example 97, (5R)-8-amino-3-fluoro-5,17-dimethyl-18-oxo-5,16,17,18-tetrahydro-7,11-(azeno)dibenzo[g,l][1,4,10]oxadiazacyclotetradecine-12-carbonitrile] had a ring closure, isolated yield (amide bond, 12-membered ring, HATU/DIEA, DMF, 6.7 mM) of 42%. Further, the Ki in data set [1] was 3.5 nM; in data set [2], 24.7 nM.
On to `CC1Oc2nc(cnc2N)-c2c(nn(C)c2C#N)COCc2ccc(F)cc21` (single isomer, unassigned) [Example 105, 7-amino-12-fluoro-2,10-dimethyl-2,10,15,17-tetrahydro-8,4-(azeno)pyrazolo[4,3-h][2,11,5]benzodioxazacyclotetradecine-3-carbonitrile], for which the values for the Ki in data set [1] and in data set [2] were 3 nM and 16.7 nM, respectively. Besides, the IC50 in data set [3] worked out at 115 nM; in data set [4] it was 642 nM.
Turning to `COc1nn(C)c2c1-c1cnc(N)c(n1)OCc1cc(F)ccc1C(=O)N(C)C2C` (single isomer, unassigned) [Example 123, 7-amino-12-fluoro-3-methoxy-1,16,17-trimethyl-16,17-dihydro-1H-8,4-(azeno)pyrazolo[4,3-h][2,5,11]benzoxadiazacyclotetradecin-15(10H)-one], the results for the Ki in data set [1] and in data set [2] were 205 nM and 333 nM, respectively. Further, the IC50 in data set [3] is 4790 nM; in data set [4], > 10000 nM.
Turning to “7-amino-12-fluoro-3-methoxy-1,16,17-trimethyl-16,17-dihydro-1H-8,4-(azeno)pyrazolo[4,3-h][2,5,11]benzoxadiazacyclotetradecin-15(10H)-one [Example 125]”, the Ki in data set [1] was determined as 0.11 nM; in data set [2] it was 0.49 nM. The values for the IC50 in data set [3] and in data set [4] were 2.3 nM and 49.1 nM, respectively.
On the same counts, the results for `CC1Oc2nc(cnc2N)-c2c(nn(C)c2C#N)CN(C)C(=O)c2ccc(F)cc21` (single isomer, unassigned) [Example 32, 7-amino-12-fluoro-2,10,16-trimethyl-15-oxo-10,15,16,17-tetrahydro-2H-8,4-(azeno)pyrazolo[4,3-h][2,5,11]benzoxadiazacyclotetradecine-3-carbonitrile] are < 0.2 nM, < 0.1 nM, 0.841 nM and 5.36 nM.
On the same counts, the results for `CC1Cc2cc(cnc2N)-c2c(nn(C)c2C#N)CN(C)C(=O)c2ccc(F)cc21` (single isomer, unassigned) [Example 64, 7-amino-12-fluoro-2,10,16-trimethyl-15-oxo-2,9,10,15,16,17-hexahydro-8,4-(metheno)pyrazolo[3,4-d][2,8]benzodiazacyclotetradecine-3-carbonitrile] are 34.4 nM, 33.3 nM, 407 nM and 1190 nM.
In the case of `CN1Cc2c(c(C#N)nn2C)-c2cnc(N)c(n2)OC(CF)c2ccccc2C1=O` (single isomer, unassigned) [Example 127], the Ki in data set [1] was 0.099 nM; in data set [2], 0.52 nM. The IC50 in data set [3] worked out at 2.5 nM; in data set [4], 65 nM.
On the same counts, the results for `CCc1onc2c1-c1cnc(N)c(n1)O[C@H](C)c1cc(F)ccc1C(=O)N(C)C2` [Example 48, (10R)-7-amino-3-ethyl-12-fluoro-10,16-dimethyl-16,17-dihydro-8,4-(azeno)[1,2]oxazolo[4,3-h][2,5,11]benzoxadiazacyclotetradecin-15(10H)-one] are 0.2 nM, 1.2 nM, 6.75 nM and 68.9 nM.
With `CC1Oc2nc(cnc2N)-c2c(nn(C)c2C#N)Cn2ccnc2-c2ccc(F)cc21` (single isomer, unassigned) [Example 108, 8-amino-3-fluoro-5,13-dimethyl-13,15-dihydro-5H-7,11-(azeno)imidazo[1,2-k]pyrazolo[4,3-h][2,5,11]benzoxadiazacyclotetradecine-12-carbonitrile], the figures for the Ki in data set [1] and in data set [2] were < 0.06 nM and < 0.05 nM, respectively. Also, the half-inhibitory concentration (IC50) in data set [3] worked out at 0.068 nM; in data set [4], 0.5 nM.
On the same counts, the results for `CC1Oc2cc(cnc2N)-c2c(nn(C)c2C#N)CN(C)C(=O)c2c(F)cccc21` (single isomer, unassigned) [Example 52, 7-amino-14-fluoro-2,10,16-trimethyl-15-oxo-10,15,16,17-tetrahydro-2H-8,4-(metheno)pyrazolo[4,3-h][2,5,11]benzoxadiazacyclotetradecine-3-carbonitrile] are 1.2 nM, 10.2 nM, 4.78 nM and 296 nM.
On the same counts, the results for `COc1noc2c1-c1cnc(N)c(c1)O[C@H](C)c1cc(F)ccc1C(=O)N(C)C2` [Example 111, (10R)-7-amino-12-fluoro-3-methoxy-10,16-dimethyl-16,17-dihydro-8,4-(metheno)[1,2]oxazolo[4,5-h][2,5,11]benzoxadiazacyclotetradecin-15(10H)-one] are 0.059 nM, 0.54 nM, 1.42 nM and 32.5 nM.
On to `CC1Oc2cc(cnc2N)-c2c(cnn2C)CCCCCOc2ccc(F)cc21` (stereo not shown), for which the ring closure, isolated yield (cc_pd bond, Pd(OAc)2/cataCXium A/KOAc, t-amyl alcohol, 30.0 mM, 120.0 °C) was determined as 43%.
On to `COc1nn(C)c2c1-c1cnc(N)c(c1)OC(C1CC1)c1cc(F)ccc1C(=O)N(C)C2` (single isomer, unassigned) [Example 25, 7-amino-10-cyclopropyl-12-fluoro-3-methoxy-1,16-dimethyl-16,17-dihydro-1H-8,4-(metheno)pyrazolo[4,3-h][2,5,11]benzoxadiazacyclotetradecin-15(10H)-one], for which the results for the Ki in data set [1] and in data set [2] were < 0.2 nM and 0.56 nM, respectively. The results for the IC50 in data set [3] and in data set [4] were 1.35 nM and 21.9 nM, respectively.
In the same order, the values of `C[C@H]1Oc2cc(cnc2N)-c2cc(S(C)(=O)=O)ccc2CN(C)Cc2ccc(F)cc21` [Example 35, (5R)-3-fluoro-5,17-dimethyl-13-(methylsulfonyl)-5,16,17,18-tetrahydro-7,11-(metheno)dibenzo[g,l][1,4,10]oxadiazacyclotetradecin-8-amine] are < 0.261 nM, 1.1 nM, 0.98 nM and 14.3 nM.
`COc1nccc2c1-c1cnc(N)c(n1)OC(C)c1cc(F)ccc1C(=O)N(C)C2` (single isomer, unassigned) [Example 31, 8-amino-13-fluoro-4-methoxy-11,17-dimethyl-17,18-dihydro-9,5-(azeno)pyrido[3,4-h][2,5,11]benzoxadiazacyclotetradecin-16(11H)-one]: the Ki worked out at 5.96 nM in data set [1] and 15.8 nM in data set [2]. For the same molecule, the IC50 in data set [3] was found to be 53.2 nM; in data set [4] it was 660 nM.
